# The source made the active and inactive calls. The calls are words filed in the database; no cut-off is given here.
# What was measured:
# Staphylococcus aureus [1] = assay: Inhibition of biofilm formation in Staphylococcus aureus ATCC 29213 at 64 ug/ml incubated for 24 hrs by crystalline violet staining based analysis; type: functional
# [2] = Toxicity in BALB/c mouse assessed as effect on urea level at 50 mg/kg, ip administered as single dose and measured after 24 hrs; type: organism-based; details: in vivo
# Cell membrane [3] = assay: Disruption of membrane integrity in methicillin-resistant Staphylococcus aureus 15 assessed as increase in red fluorescence at 16 ug/ml incubated for 1 hr by DAPI/PI staining based fluorescence microscopic analysis; type: subcellular; details: dose 16.0 µg/ml
# Cell membrane [4] = assay: Disruption of membrane integrity in methicillin-resistant Staphylococcus aureus 15 at 32 ug/ml by SEM analysis; type: subcellular; details: dose 32.0 µg/ml
# Staphylococcus aureus [5] = assay: Inhibition of biofilm formation in methicillin-resistant Staphylococcus aureus 15 incubated for 24 hrs by crystalline violet staining based analysis; type: functional, organism-based; details: dose 0.125-64 µg/ml
# [6] = Selectivity index, ratio of HC50 for hemolytic activity in sheep RBC to MIC for antibacterial activity against Staphylococcus aureus ATCC 29213; type: toxicity; details: sheep red blood cells
# [7] = Stability in 50% plasma (unknown origin) assessed as change in MBC against methicillin-resistant Staphylococcus aureus 15 measured for 6 hrs; type: ADME, cell-free
# Cell membrane [8] = assay: Induction of cell membrane disruption in methicillin-resistant Staphylococcus aureus 15 assessed as DNA leakage at 1 to 6 times MIC incubated for 1 to 2 hrs by microspectrophotometer; type: subcellular; details: time 1-2 hrs
# [9] = Toxicity in BALB/c mouse assessed as effect on creatinine level at 50 mg/kg, ip administered as single dose and measured after 24 hrs; type: organism-based; details: in vivo
# Staphylococcus aureus [10] = assay: Antibacterial activity against methicillin-resistant Staphylococcus aureus 15 infected in BALB/c mouse sepsis model assessed as normalization of cell morphology in liver at 10 mg/kg, ip measured after 48 hrs by H & E staining based analysis; type: functional, organism-based
# Cell membrane [11] = assay: Induction of membrane depolarization in methicillin-resistant Staphylococcus aureus 15 assessed as increase in fluorescence intensity at 32 ug/ml by DiSC3-5 dye based fluorescence method; type: subcellular; details: dose 32.0 µg/ml
# Salmonella enterica = assay: Antibacterial activity against Salmonella enterica H9812 assessed as inhibition of bacterial growth incubated for 16 to 20 hrs by CLSI based microdilution method; type: functional; details: time 16-20 hrs
# Staphylococcus aureus [12] = assay: Inhibition of biofilm formation in methicillin-resistant Staphylococcus aureus 15 assessed as destruction of formed biofilm at 128 ug/ml incubated for 24 hrs by crystal violet staining based analysis relative to control; type: functional
# [13] = Toxicity in BALB/c mouse assessed as effect on hematocrit level at 50 mg/kg, ip administered as single dose and measured after 24 hrs; type: organism-based; details: in vivo
# Staphylococcus aureus [14] = assay: Antibacterial activity against methicillin-resistant Staphylococcus aureus 15 infected in BALB/c mouse sepsis model assessed as survival rate at 20 mg/kg, ip administered for 7 days; type: functional; details: Staphylococcus aureus, 15, 168 h, time 7 day
# Staphylococcus aureus [15] = assay: Antibacterial activity against Staphylococcus aureus ATCC 29213 assessed as inhibition of bacterial growth incubated for 16 to 20 hrs by CLSI based microdilution method; type: functional; details: time 16-20 hrs
# [16] = Toxicity in BALB/c mouse assessed as effect on mean corpuscular volume at 50 mg/kg, ip administered as single dose and measured after 24 hrs; type: organism-based; details: in vivo
# L02 [17] = assay: Cytotoxicity against human L02 cells assessed as reduction in cell viability at 2.5 to 80 ug/ml incubated for 24 hrs by CCK-8 assay; type: toxicity, cell-based; details: l02, 24 h, dose 2.5-80 µg/ml
# Staphylococcus aureus [18] = assay: Antibiofilm activity against methicillin-resistant Staphylococcus aureus 15 assessed as reduction in live bacteria in biofilm incubated for 24 hrs by crystal violet staining based analysis; type: functional, organism-based; details: dose 0-128 µg/ml
# Cell membrane [19] = assay: Disruption of membrane integrity in methicillin-resistant Staphylococcus aureus 15 assessed as increase in fluorescence intensity at 32 ug/ml measured immediately by Sytox green based fluorescence method; type: subcellular; details: dose 32.0 µg/ml
# Staphylococcus aureus [20] = assay: Induction of drug resistance in Staphylococcus aureus ATCC 29213 assessed as increase in MIC at 0.5 times MIC measured for 20 days by CLSI based microdilution method; type: functional, organism-based; details: time 20.0 day
# Staphylococcus aureus [21] = assay: Antibacterial activity against methicillin-resistant Staphylococcus aureus 15 incubated for 16 to 18 hrs in presence of peptidoglycan by checkerboard microdilution assay; type: functional, organism-based; details: time 16-18 hrs
# Staphylococcus aureus [22] = assay: Inhibition of biofilm formation in methicillin-resistant Staphylococcus aureus 15 at 64 ug/ml incubated for 24 hrs by crystalline violet staining based analysis; type: functional
# Micrococcus luteus = assay: Antibacterial activity against Micrococcus luteus assessed as inhibition of bacterial growth incubated for 16 to 20 hrs by CLSI based microdilution method; type: functional; details: time 16-20 hrs
# L02 [23] = assay: Cytotoxicity against human L02 cells assessed as effect on cell morphology at 2.5 to 80 ug/ml incubated for 24 hrs by Hoechst 33342 and propidium iodide staining based fluorescence microscopic analysis; type: toxicity; details: l02, 24 h, dose 2.5-80 µg/ml
# Staphylococcus aureus [24] = assay: Bactericidal activity against methicillin-resistant Staphylococcus aureus 15 at 4 to 8 times MIC measured after 3 hrs by time kill assay; type: functional
# [25] = Toxicity in BALB/c mouse assessed as survival rate at 10 to 50 mg/kg, ip administered as single dose and measured for 7 consecutive days; type: organism-based; details: in vivo, dose 10-50 mg/kg, time 7 day
# Staphylococcus aureus [26] = assay: Antibacterial activity against methicillin-resistant Staphylococcus aureus 15 incubated for 16 to 18 hrs in presence of cardiolipin by checkerboard microdilution assay; type: functional, organism-based; details: time 16-18 hrs
# Staphylococcus aureus [27] = assay: Inhibition of biofilm formation in Staphylococcus aureus ATCC 29213 assessed as destruction of formed biofilm at 0 to 128 ug/ml incubated for 24 hrs by crystal violet staining based analysis; type: functional, organism-based; details: dose 0-128 µg/ml
# [28] = Toxicity in BALB/c mouse assessed as effect on albumin level at 50 mg/kg, ip administered as single dose and measured after 24 hrs; type: organism-based; details: in vivo
# Staphylococcus aureus [29] = assay: Antibacterial activity against methicillin-resistant Staphylococcus aureus 15 infected in BALB/c mouse sepsis model assessed as normalization of cell morphology in spleen at 10 mg/kg, ip measured after 48 hrs by H & E staining based analysis; type: functional, organism-based
# Escherichia coli = assay: Antibacterial activity against Escherichia coli ATCC 25922 assessed as inhibition of bacterial growth incubated for 16 to 20 hrs by CLSI based microdilution method; type: functional; details: time 16-20 hrs
# Staphylococcus aureus [30] = assay: Antibacterial activity against methicillin-resistant Staphylococcus aureus 15 infected in BALB/c mouse sepsis model assessed as normalization of cell morphology in kidney at 10 mg/kg, ip measured after 48 hrs by H & E staining based analysis; type: functional, organism-based
# [31] = Toxicity in BALB/c mouse assessed as pathological changes in kidney at 50 mg/kg, ip administered as single dose and measured after 24 hrs by H & E staining based analysis; type: organism-based; details: in vivo
# Staphylococcus aureus [32] = assay: Induction of ROS production in methicillin-resistant Staphylococcus aureus 15 assessed as accumulation of intracellular ROS incubated for 30 mins by DCFH-DA staining based fluorescence assay; type: functional, organism-based; details: dose 2-64 µg/ml
# Staphylococcus aureus [33] = assay: Antibacterial activity against methicillin-resistant Staphylococcus aureus 15 infected in BALB/c mouse sepsis model assessed as reduction in bacterial load in spleen at 10 mg/kg, ip measured after 48 hrs; type: functional, organism-based
SMILES,inhibition at 64 µg/mL (Staphylococcus aureus [1]) [%],Activity [2],Activity (Cell membrane [3]),Activity (Cell membrane [4]),inhibition (Staphylococcus aureus [5]),selectivity ratio [6],Stability [7],Activity (Cell membrane [8]),Activity [9],Activity (Staphylococcus aureus [10]),Activity (Cell membrane [11]),MIC (Salmonella enterica) [mg/L],inhibition at 128 µg/mL (Staphylococcus aureus [12]) [%],Activity [13],survival at 20 mg/kg (Staphylococcus aureus [14]) [%],MIC (Staphylococcus aureus [15]) [mg/L],Activity [16],Activity (L02 [17]),Activity (Staphylococcus aureus [18]),Activity (Cell membrane [19]),also measured
C=CCc1cccc(Oc2ccc(C(=O)CC)cc2)c1OCCC[N+](C)(C)CC(=O)NCCCCCC.[Br-],100,Non-Toxic,Active,Active,Dose-Dependent Effect,458,Stable,Active,Non-Toxic,Active,Active,32,> 80,Non-Toxic,100,2,Non-Toxic,Non-Toxic,Active,Active,Activity (Staphylococcus aureus [20]): inactive; Activity (Staphylococcus aureus [21]): Active; inhibition at 64 µg/mL (Staphylococcus aureus [22]): 100%; MIC (Micrococcus luteus): 1 mg/L; Activity (L02 [23]): Non-Toxic; Activity (Staphylococcus aureus [24]): 100%; survival at 168 h [25]: 100%; Activity (Staphylococcus aureus [26]): inactive; inhibition (Staphylococcus aureus [27]): Active; Activity [28]: Non-Toxic; Activity (Staphylococcus aureus [29]): Active; MIC (Escherichia coli): 16 mg/L; Activity (Staphylococcus aureus [30]): Active; Activity [31]: Non-Toxic; Activity (Staphylococcus aureus [32]): Dose-Dependent Effect; Activity (Staphylococcus aureus [33]): Active
C=CCc1cccc(Oc2ccc(C(=O)CC)cc2)c1OCC[N+](C)(C)CC(=O)NCCCCCC.[Br-],100,Non-Toxic,Active,Active,Dose-Dependent Effect,556,Stable,Active,Non-Toxic,Active,Active,64,> 80,Non-Toxic,100,2,Non-Toxic,Non-Toxic,Active,Active,Activity (Staphylococcus aureus [20]): inactive; Activity (Staphylococcus aureus [21]): Active; inhibition at 64 µg/mL (Staphylococcus aureus [22]): 100%; MIC (Micrococcus luteus): 4 mg/L; Activity (L02 [23]): Non-Toxic; Activity (Staphylococcus aureus [24]): 100%; survival at 168 h [25]: 100%; Activity (Staphylococcus aureus [26]): inactive; inhibition (Staphylococcus aureus [27]): Active; Activity [28]: Non-Toxic; Activity (Staphylococcus aureus [29]): Active; MIC (Escherichia coli): 8 mg/L; Activity (Staphylococcus aureus [30]): Active; Activity [31]: Non-Toxic; Activity (Staphylococcus aureus [32]): Dose-Dependent Effect; Activity (Staphylococcus aureus [33]): Active
